Experimental findings from patent US12637440B2, “Amide derivative useful as diacylglycerol acyltransferase 2 inhibitor, and use thereof” (LG CHEM, LTD., priority 2019, dated 2026) are described below.

This assay has as its target T1, Recombinant human DGAT2 protein (Homo sapiens, UniProt Q96PD7).
T1 construct: FLAG (DYKDDDDK); (N); made in house; host or cells: Sf-21 insect cells (BacPAK baculovirus system); used as a membrane preparation
T1 sequence (Q96PD7 1-388): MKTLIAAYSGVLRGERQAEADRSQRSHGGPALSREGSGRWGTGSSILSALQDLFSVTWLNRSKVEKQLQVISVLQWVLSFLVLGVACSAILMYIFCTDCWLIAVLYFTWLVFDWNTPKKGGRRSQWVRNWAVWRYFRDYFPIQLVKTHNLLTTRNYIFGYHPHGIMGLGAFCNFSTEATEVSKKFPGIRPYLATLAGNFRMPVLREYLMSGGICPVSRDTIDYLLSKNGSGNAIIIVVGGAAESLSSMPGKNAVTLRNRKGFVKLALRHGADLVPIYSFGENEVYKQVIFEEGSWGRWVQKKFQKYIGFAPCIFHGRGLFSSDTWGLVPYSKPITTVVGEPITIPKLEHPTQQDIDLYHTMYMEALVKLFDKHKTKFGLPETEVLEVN
Put plainly: Measurement of inhibitory effect against DGAT2 enzyme activity (SPA, Phospholipid FlashPlate, [14C]-TG production). As to conditions: concentration inhibiting [14C]-labeled triacyl glycerol (TG) production by 50%; 2 μg DGAT2-membrane protein from Sf-21 cells, 37° C. Format: biochemical. As for the experimental part:
Experimental Example: Measurement of Inhibitory Effect Against DGAT2 Enzyme Activity
In order to prepare the pBacPAK9-DGAT2, which is DGAT2 expression vector, the human DGAT2 gene amplified by polymerase chain reaction (PCR) was cloned into the EcoR1 and Xho1 sites of the pBacPAK9 (clonctech) vector. The nucleotide sequence of the primers used in PCR was the forward primer 5′ […] and the reverse primer 5′ […]. The composition of the reaction solution was to contain 50 ng of cDNA clone (OriGene), 200 μM of dATP, dCTP, dTTP, dGTP, 200 nM of each primer, 1 unit of Tag DNA Polymerase (Toyobo), 1×PCR buffer, and the final volume was adjusted to 20 μl. The reaction conditions were denatured at 95° C. for 5 minutes, followed by 30 times of 94° C. for 20 seconds, 60° C. for 20 seconds, and 72° C. for 90 seconds, followed by further reaction at 72° C. for 7 minutes.
Recombinant human DGAT2 protein was expressed in Sf-21 cells, which are insect cells, by using the BacPack baculovirus expression system (Clontech). The brief manufacturing process is as follows. First, the pBacPAK9-DGAT2 expression vector was transfected with BacPAK6 virus DNA (Bsu36I digest) into sf21 cells using Bacfectin to prepare a recombinant DGAT2 expressing baculovirus. The thus prepared baculovirus was infected with Sf-21 cells at 10 MOI (multiplicity of infection), and after 72 hours, infected insect cells were collected and membrane proteins were isolated. For membrane protein separation, the cell pellet was dissolved in a sucrose solution containing 250 mM sucrose, 10 mM Tris (pH 7.4), and 1 mM ethylenediamine-tetraacetic acid (EDTA), and then homogenized by using a dounce homogenizer, and the supernatant was taken by centrifuging at 600×g for 15 minutes, and centrifuged at 100,000×g for 1 hour to discard the supernatant, and the remaining pellet was resuspended in 20 mM HEPES buffer (pH 7.4). The prepared DGAT2 overexpressing membrane protein was dispensed in 100 μl and stored at −80° C. until use. Protein concentration was quantified by using the BCA Protein Assay Kit (Thermo Scientific).
In vitro DGAT2 analysis was performed using a Phospholipid Flash Plate (PerkinElmer) based on the principle of SPA (Scintillation Proximity Assay). First, DGAT2 inhibition compounds serially diluted 5 times from 3 nM to 10 μM (final concentration, 1% DMSO) were mixed in a buffer solution containing 2 μg DGAT2-membrane protein and 20 mM HEPES, 20 mM MgCl2, 1 mg/mL BSA, 50 μM 1,2 sn-oleoyl glycerol (Sigma), put in a 96-well flash plate (FlashPlate) and reacted at 37° C. for 20 minutes, and then 1 μM [14C] ole oil CoA (PerkinElmer, NEC651050UC) was added to be a final volume of 100 μL and further reacted at 37° C. for 15 minutes. After the enzymatic reaction was completed, 100 μL of isopropanol was added, the plate was sealed with a film, and the plate was shaken slowly in a plate shaker. The next day, the amplified scintillation signal (cpm) in Topcounter (Packard) was measured to measure the degree of production of [14C]-labeled triacyl glycerol (TG) as a reaction product. The measured value when the compound was not treated was used as a positive control, and the measured value of the compound treated group was calculated as a relative % to measure the inhibition effect of the compound on TG production.

Consider `CCOc1ccccc1O[C@@H]1CCCN(c2cncc(NC(=O)CCC(=O)O)n2)C1` [Example 19, (R)-4-((6-(3-(2-ethoxyphenoxy)piperidin-1-yl)pyrazin-2-yl)amino)-4-oxobutanoic acid], for which the IC50 is approximately 15000 nM.
Regarding `CCOc1ccccc1O[C@@H]1CCCN(c2cncc(NC(=O)CC34CCC(C(=O)O)(CC3)CC4)n2)C1` [Example 118, (R)-4-(2-((6-(3-(2-ethoxyphenoxy)piperidin-1-yl)pyrazin-2-yl)amino)-2-oxoethyl)bicyclo[2.2.2]octane-1-carboxylic acid], the IC50 was 170 nM.
For the compound `CCOc1ccccc1O[C@@H]1CCCN(c2cccc(NC(=O)CCc3ccc(C(C)(C)C(=O)O)cc3)n2)C1` [Example 70, (R)-2-(4-(3-((6-(3-(2-ethoxyphenoxy)piperidin-1-yl)pyridin-2-yl)amino)-3-oxopropyl)phenyl)-2-methylpropanoic acid], the IC50 amounted to 350 nM.
As for `CCOc1ccccc1O[C@@H]1CCCN(c2cncc(NC(=O)Cc3ccc(C(C)(C)C(=O)O)cc3)n2)C1` [Example 69, (R)-2-(4-(2-((6-(3-(2-ethoxyphenoxy)piperidin-1-yl)pyrazin-2-yl)amino)-2-oxoethyl)phenyl)-2-methylpropanoic acid], the IC50 was determined as 970 nM.
Consider `CCOc1ccccc1O[C@@H]1CCCN(c2cncc(NC(=O)C3(C)CCNC3)n2)C1` (stereo partly drawn) [Example 88, N-(6-((R)-3-(2-ethoxyphenoxy)piperidin-1-yl)pyrazin-2-yl)-3-methylpyrrolidine-3-carboxamide], for which the IC50 came out at 6200 nM.
Turning to `CCOc1ccccc1O[C@@H]1CCCN(c2cncc(NC(=O)CCc3ccc(C(=O)O)c(OC)c3)n2)C1` [Example 46, (R)-4-(3-((6-(3-(2-ethoxyphenoxy)piperidin-1-yl)pyrazin-2-yl)amino)-3-oxopropyl)-2-methoxybenzoic acid], the IC50 was determined as 510 nM.
With `CCOc1ccccc1O[C@@H]1CCCN(c2cncc(NC(=O)N3CCCC3)n2)C1` [Example 4, (R)—N-(6-(3-(2-ethoxyphenoxy)piperidin-1-yl)pyrazin-2-yl)pyrrolidine-1-carboxamide], the IC50 worked out at 1600 nM.
On to `CCOc1ccccc1O[C@@H]1CCCN(c2cncc(NC(=O)CCc3ccc(CC(=O)O)cc3)n2)C1` [Example 49, (R)-2-(4-(3-((6-(3-(2-ethoxyphenoxy)piperidin-1-yl)pyrazin-2-yl)amino)-3-oxopropyl)phenyl)acetic acid], for which the IC50 was found to be 100 nM.
Turning to `CCOc1ccccc1O[C@@H]1CCCN(c2cncc(NC(=O)CCc3ccc(C(=O)O)c(C)c3)n2)C1` [Example 45, (R)-4-(3-((6-(3-(2-ethoxyphenoxy)piperidin-1-yl)pyrazin-2-yl)amino)-3-oxopropyl)-2-methylbenzoic acid], the IC50 stood at 150 nM.
For `CCOc1ccccc1O[C@@H]1CCCN(c2cncc(NC(=O)Cc3ccc(CC(N)=O)cc3)n2)C1` [Example 35], the IC50 amounted to 30 nM.
For the compound `CCOc1ccccc1O[C@@H]1CCCN(c2cncc(NC(=O)CCc3ccc(C(=O)O)c(F)c3)n2)C1` [Example 44, (R)-4-(3-((6-(3-(2-ethoxyphenoxy)piperidin-1-yl)pyrazin-2-yl)amino)-3-oxopropyl)-2-fluorobenzoic acid], the IC50 worked out at 170 nM.
With `CCOc1ccccc1O[C@@H]1CCCN(c2cncc(NC(=O)C3CCC[C@H]3C(=O)O)n2)C1` (stereo partly drawn) [Example 20, (1R)-2-((6-((R)-3-(2-ethoxyphenoxy)piperidin-1-yl)pyrazin-2-yl)carbamoyl)cyclopentane-1-carboxylic acid], the IC50 was 4000 nM.
In the case of `CCOc1ccccc1O[C@@H]1CCCN(c2cncc(NC(=O)C3CCN(c4nnn(CC(=O)O)n4)CC3)n2)C1` [Example 82, (R)-2-(5-(4-((6-(3-(2-ethoxyphenoxy)piperidin-1-yl)pyrazin-2-yl)carbamoyl)piperidin-1-yl)-2H-tetrazol-2-yl)acetic acid] it was 6800 nM; in that of `CCOc1ccccc1O[C@@H]1CCCN(c2cncc(NC(=O)c3ccc(Oc4ccc(C(=O)O)cc4)cc3)n2)C1` [Example 62, (R)-4-(4-((6-(3-(2-ethoxyphenoxy)piperidin-1-yl)pyrazin-2-yl)carbamoyl)phenoxy)benzoic acid], 2100 nM.
Consider `CCOc1ccccc1O[C@@H]1CCCN(c2cncc(NC(=O)C3CCN(c4ccc(CC(=O)O)cc4)CC3)n2)C1` [Example 79, (R)-2-(4-(4-((6-(3-(2-ethoxyphenoxy)piperidin-1-yl)pyrazin-2-yl)carbamoyl)piperidin-1-yl)phenyl)acetic acid], for which the IC50 came to 930 nM.
The figure for `CCOc1ccccc1O[C@@H]1CCCN(c2cccc(NC(=O)Cc3ccc(C(C)(C)C(=O)O)cc3)n2)C1` [Example 68, (R)-2-(4-(2-((6-(3-(2-ethoxyphenoxy)piperidin-1-yl)pyridin-2-yl)amino)-2-oxoethyl)phenyl)-2-methylpropanoic acid] is 630 nM; for `CCOc1ccccc1O[C@@H]1CCCN(c2cncc(NC(=O)CCc3ccc(C4(C(=O)O)CC4)cc3)n2)C1` [Example 52, (R)-1-(4-(3-((6-(3-(2-ethoxyphenoxy)piperidin-1-yl)pyrazin-2-yl)amino)-3-oxopropyl)phenyl)cyclopropane-1-carboxylic acid] it is 66 nM.
On to `CCOc1cccnc1O[C@@H]1CCCN(c2ccnc(NC(=O)C(C)(C)c3ccc(CC(C)(C)C(=O)O)cc3)n2)C1` [Example 78, (R)-3-(4-(1-((4-(3-((3-ethoxypyridin-2-yl)oxy)piperidin-1-yl)pyrimidin-2-yl)amino)-2-methyl-1-oxopropan-2-yl)phenyl)-2,2-dimethylpropanoic acid], for which the IC50 was determined as 2500 nM.
Regarding `CCOc1ccccc1O[C@@H]1CCCN(c2cncc(NC(=O)c3cccc(-c4ccc(CC(C)(C)C(=O)O)cc4)c3)n2)C1` [Example 130, (R)-3-(3′-((6-(3-(2-ethoxyphenoxy)piperidin-1-yl)pyrazin-2-yl)carbamoyl)-[1,1′-biphenyl]-4-yl)-2,2-dimethylpropanoic acid], the IC50 is 380 nM.
In the case of `CCOc1ccccc1O[C@@H]1CCCN(c2cncc(NC(=O)N3CCC(C(=O)O)C3)n2)C1` (stereo partly drawn) [Example 5, 1-((6-((R)-3-(2-ethoxyphenoxy)piperidin-1-yl)pyrazin-2-yl)carbamoyl)pyrrolidine-3-carboxylic acid] it was 51000 nM.
Turning to `CCOc1ccccc1O[C@@H]1CCCN(c2nccc(NC(=O)Cc3ccc(CC(C)(C)C(=O)O)cc3)n2)C1` [Example 112, (R)-3-(4-(2-((2-(3-(2-ethoxyphenoxy)piperidin-1-yl)pyrimidin-4-yl)amino)-2-oxoethyl)phenyl)-2,2-dimethylpropanoic acid], the IC50 is 60 nM.
`CCOc1ccccc1O[C@@H]1CCCN(c2cncc(NC(=O)c3ccccc3C(=O)O)n2)C1` [Example 11, (R)-2-((6-(3-(2-ethoxyphenoxy)piperidin-1-yl)pyrazin-2-yl)carbamoyl)benzoic acid]: the IC50 was found to be 16000 nM.
In the case of `CCOc1cccnc1O[C@@H]1CCCN(c2nccc(NC(=O)Cc3ccc(CC(C)(C)C(=O)O)cc3)n2)C1` [Example 115, (R)-3-(4-(2-((2-(3-((3-ethoxypyridin-2-yl)oxy)piperidin-1-yl)pyrimidin-4-yl)amino)-2-oxoethyl)phenyl)-2,2-dimethylpropanoic acid] it was 140 nM.
